As a reminder, the IC50 is the concentration that inhibits the measured activity by half.

Molecules are shown by their SMILES.

This is an account of results in patent US5135932A, “2-hydroxypropylamino-alkyl-benzimidazoly-5-yl derivatives and their use in the treatment of heart disease” (Dr. Karl Thomae GmbH, priority 1989, dated 1992).

Experiment [1] addresses T1, β1 adreno receptor (rat hearts) (Rattus norvegicus, UniProt P18090).
T1 construct: receptor preparations from rat hearts (β1); from tissue; host or cells: rat heart membrane preparation
The experiment can be described thus: Affinity for β-adreno receptors: inhibition of 3H-CGP 12177 binding, receptor preparations from rat hearts (β1). The note with it: 200 pM 3H-CGP 12177. As to the method:
(§1) 1. Affinity for β-adreno recectors
(§2) The inhibitory effect on the binding of ^3 H-CGP 12177 was tested on receptor preparations from rat hearts (β1) and rat lungs (β2). The binding assay was carried out with some modifications according to the method of Dammgen et al. (Drug. Res. 35: 383-390 (1985)). The incubation mixture contained aliquots of the membrane preparation in Tris buffer, increasing concentrations of the potential antagonist as well as 200 pM ^3 H-CGP 12177. The bound and free radioligands were separated after the incubation period by rapid filtration through glass fibre filters. The filter-bound radioactivity was determined in a β counter with a counting yield of about 52%. The non-specific binding was determined in the presence of 10^-5 M propranolol.

The target of experiment [2] is T2, β2 adreno receptor (rat lungs) (Rattus norvegicus, UniProt P10608).
T2 construct: rat lungs (β2); from tissue; host or cells: rat lung membrane preparation
T2 sequence (P10608 whole entry): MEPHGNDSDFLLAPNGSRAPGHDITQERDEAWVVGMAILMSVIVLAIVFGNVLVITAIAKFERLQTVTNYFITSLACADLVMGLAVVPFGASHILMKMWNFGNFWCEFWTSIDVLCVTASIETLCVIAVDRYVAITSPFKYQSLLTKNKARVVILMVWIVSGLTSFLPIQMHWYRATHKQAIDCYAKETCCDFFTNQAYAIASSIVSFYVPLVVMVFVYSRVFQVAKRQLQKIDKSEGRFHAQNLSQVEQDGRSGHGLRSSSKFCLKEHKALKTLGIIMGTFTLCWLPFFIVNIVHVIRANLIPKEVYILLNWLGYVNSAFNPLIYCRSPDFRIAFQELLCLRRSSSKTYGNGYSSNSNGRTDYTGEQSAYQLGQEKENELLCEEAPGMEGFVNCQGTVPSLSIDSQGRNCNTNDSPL
Put plainly: Affinity for β-adreno receptors: inhibition of 3H-CGP 12177 binding, receptor preparations from rat lungs (β2). As to conditions: 200 pM 3H-CGP 12177. The protocol:
as §1, §2

Experiment [3] concerns Guinea-pigs (Dunkin-Hartley-Pirbright, male). The experiment can be described thus: Cardiotonic effect: LV-dP/dtmax and heart rate in anaesthetised guinea-pigs. As to conditions: after a dose of 3 mg/kg i.v., averages from 2 to 3 tests; for change in vivo at 3 mg/kg: Cavia porcellus, iv, read-out: Effects on LV-dP/dtmax % increase. In kind it is in vivo, guinea-pig. The protocol:
(§3) Cardiotonic effect with antiadrenergic activity
(§4) Guinea-pigs (Dunkin-Hartley-Pirbright, male, 450-600 g) were anaesthetised with hexobarbital-sodium (150 mg/kg i.p.). After the animals had become unconscious, a tracheal cannula was inserted and the animals were pitched (van Meel, J. Pharmacol. Methods 31 (1): 1-11 (1985)). The animals were then immediately artificially respirated using a breathing pump. The left ventricular pressure (LVP) was measured with a Millar PR-249 catheter-tip manometer inserted into the left ventricle through the left carotid artery. This pressure signal was differentiated electronically (LV-dP/dtmax) and used as a parameter for inotropia. The arterial blood pressure was recorded by a cannula in the right carotid artery using a Bell & Howell pressure recorder. The heart rate was also measured. The substances were administered through a cannula in the jugular vein.
(§5) The test substances were administered to three animals cumulatively in four doses (0.1 to 3 mg/kg) and the effects on blood pressure, heart rate and LV-dP/dtmax were measured. Three minutes after the last dose of the test substance, isoprenalin was administered intravenously in increasing doses. In this way, a cumulative dose-activity correlation was obtained for isoprenalin in the presence of the test substance. The parameters measured were the increase in heart rate and the LV-dP/dtmax. These dose-activity curves were compared with standard curves for isoprenalin without the test substances. The shift to the right of the dose-activity curves for isoprenalin brought about by the test substances were determined graphically and corresponding pA2 values for the test substances were calculated. (see Tenakin in "Pharmacologic Analysis of Drug Receptor Interaction", Rawen Press 1987, pages 211-212).
(§6) The Table which follows contains the averages from 2 to 3 tests: […]

Experiment [4] can be described thus: Antiadrenergic activity: shift of isoprenalin dose-activity curves in guinea-pigs (pA2). The format is in vivo, guinea-pig. The note with it: averages from 2 to 3 tests; for pA2 heart rate: against heart rate-increasing activity of isoprenalin; for pA2 inotropia: against inotropic activity of isoprenalin (LV-dP/dtmax). As to the method:
as §3, §4, §5, §6

T1 sequence (P18090 whole entry): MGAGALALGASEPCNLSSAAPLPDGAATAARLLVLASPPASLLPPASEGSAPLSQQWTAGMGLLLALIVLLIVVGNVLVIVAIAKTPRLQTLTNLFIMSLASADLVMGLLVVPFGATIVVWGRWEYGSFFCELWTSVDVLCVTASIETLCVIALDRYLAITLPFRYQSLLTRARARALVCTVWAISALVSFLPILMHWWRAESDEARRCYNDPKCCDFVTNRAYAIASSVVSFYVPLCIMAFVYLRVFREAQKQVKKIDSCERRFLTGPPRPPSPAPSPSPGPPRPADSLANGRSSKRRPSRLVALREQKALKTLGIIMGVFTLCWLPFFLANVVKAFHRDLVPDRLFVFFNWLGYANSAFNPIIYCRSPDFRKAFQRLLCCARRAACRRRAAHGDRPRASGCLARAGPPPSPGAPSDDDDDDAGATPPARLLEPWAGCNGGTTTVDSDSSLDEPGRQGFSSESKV

As to `Cc1cc(C2=NNC(=O)CC2)ccc1OCCCNCC(O)COc1ccc(CCOCC2CC2)cc1` (stereo not drawn) [Substance O, 6-[4-[3-[3-(4-(2-cyclopropylmethoxy-ethyl)phenoxy)-2-hydroxy-propylamino]propoxy]-3-methyl-phenyl]-4,5-dihydro-3(2H)-pyridazinone], the IC50 in experiment [1] turned out to be 59 nM. In experiment [2], this compound had an IC50 of 66 nM. Moreover, in experiment [3], the change in vivo at 3 mg/kg worked out at 38% and the “Effect on heart rate in beats per minute” value is listed as -116 beats per minute. Besides, in experiment [4], the pA2 heart rate is 7.70 and the pA2 inotropia is listed as 6.44.

`Cc1cc(C2=NNC(=O)CC2)ccc1OCCCNCC(O)COc1ccc(CCOCC2CCC2)cc1` (stereo not drawn) [Substance P, 6-[4-[3-[3-(4-(2-cyclobutylmethoxy-ethyl)phenoxy)-2-hydroxy-propylamino]propoxy]-3-methyl-phenyl]-4,5-dihydro-3(2H)-pyridazinone] gave an IC50 in experiment [1] of 6 nM. The IC50 in experiment [2] was found to be 220 nM. For the same compound, in experiment [3], the change in vivo at 3 mg/kg worked out at 69% and the “Effect on heart rate in beats per minute” value is -61 beats per minute. Besides, in experiment [4], the pA2 heart rate is 6.45 and the pA2 inotropia amounted to 5.31.
